# Source: the NIST ThermoML archive (doi:10.1016/j.jct.2019.05.010)
# Where “and” joins values, the source holds several entries; their conditions need not be identical. Identical values can stand only once. ± gives the expanded uncertainty stated by the source.
# What was measured:
# [1] = 101.33 kPa, Crystal, Vacuum adiabatic calorimetry
# [2] = molar heat capacity at constant pressure; settings: 101.33 kPa, Crystal, Vacuum adiabatic calorimetry
smiles,measurement,setting,value
"CC(=O)[CH-]C(C)=O.CC(=O)[CH-]C(C)=O.[Cu+2] [bis(2,4-pentanedionato-O,O')copper]",molar entropy,[1]; 5 K,0.229 ± 0.017 J/K/mol
same,molar entropy,[1]; 10 K,1.632 ± 0.068 J/K/mol
same,molar entropy,[1]; 15 K,4.62 ± 0.19 J/K/mol
same,molar entropy,[1]; 20 K,9.07 ± 0.37 J/K/mol
same,molar entropy,[1]; 25 K,14.79 ± 0.4 J/K/mol
same,molar entropy,[1]; 30 K,21.5 ± 0.46 J/K/mol
same,molar entropy,[1]; 35 K,28.92 ± 0.55 J/K/mol
same,molar entropy,[1]; 40 K,36.8 ± 0.61 J/K/mol
same,molar entropy,[1]; 45 K,44.99 ± 0.68 J/K/mol
same,molar entropy,[1]; 50 K,53.37 ± 0.77 J/K/mol
same,molar entropy,[1]; 55 K,61.8 ± 0.9 J/K/mol
same,molar entropy,[1]; 60 K,70.3 ± 0.9 J/K/mol
same,molar entropy,[1]; 65 K,78.6 ± 0.9 J/K/mol
same,molar entropy,[1]; 70 K,86.9 ± 1.2 J/K/mol
same,molar entropy,[1]; 80 K,103.1 ± 1.2 J/K/mol
same,molar entropy,[1]; 90 K,118.8 ± 1.2 J/K/mol
same,molar entropy,[1]; 100 K,133.8 ± 1.3 J/K/mol
same,molar entropy,[1]; 110 K,148.3 ± 1.5 J/K/mol
same,molar entropy,[1]; 120 K,162.3 ± 1.5 J/K/mol
same,molar entropy,[1]; 130 K,175.7 ± 1.6 J/K/mol
same,molar entropy,[1]; 140 K,188.8 ± 1.6 J/K/mol
same,molar entropy,[1]; 150 K,201.4 ± 1.9 J/K/mol
same,molar entropy,[1]; 160 K,213.6 ± 1.9 J/K/mol
same,molar entropy,[1]; 170 K,225.6 ± 1.9 J/K/mol
same,molar entropy,[1]; 180 K,237.2 ± 1.9 J/K/mol
same,molar entropy,[1]; 190 K,248.5 ± 1.9 J/K/mol
same,molar entropy,[1]; 200 K,259.6 ± 1.9 J/K/mol
same,molar entropy,[1]; 210 K,270.5 ± 2.2 J/K/mol
same,molar entropy,[1]; 220 K,281.1 ± 2.2 J/K/mol
same,molar entropy,[1]; 230 K,291.6 ± 2.2 J/K/mol
same,molar entropy,[1]; 240 K,301.9 ± 2.2 J/K/mol
same,molar entropy,[1]; 250 K,312.1 ± 2.2 J/K/mol
same,molar entropy,[1]; 260 K,322.1 ± 2.2 J/K/mol
same,molar entropy,[1]; 270 K,331.9 ± 2.5 J/K/mol
same,molar entropy,[1]; 280 K,341.7 ± 2.5 J/K/mol
same,molar entropy,[1]; 290 K,351.4 ± 2.5 J/K/mol
same,molar entropy,[1]; 298.15 K,359.1 ± 2.5 J/K/mol
same,molar entropy,[1]; 300 K,360.9 ± 2.5 J/K/mol
same,molar entropy,[1]; 310 K,370.4 ± 2.5 J/K/mol
same,molar entropy,[1]; 313 K,373.2 ± 2.5 J/K/mol
same,molar heat capacity at constant pressure,[2]; 5 K,0.667 ± 0.026 J/K/mol
same,molar heat capacity at constant pressure,[2]; 6.54 K,1.427 ± 0.043 J/K/mol
same,molar heat capacity at constant pressure,[2]; 9.03 K,3.433 ± 0.095 J/K/mol
same,molar heat capacity at constant pressure,[2]; 10 K,4.4 ± 0.13 J/K/mol
same,molar heat capacity at constant pressure,[2]; 11.38 K,6.016 ± 0.16 J/K/mol
same,molar heat capacity at constant pressure,[2]; 13.66 K,9.127 ± 0.24 J/K/mol
same,molar heat capacity at constant pressure,[2]; 15 K,11.23 ± 0.31 J/K/mol
same,molar heat capacity at constant pressure,[2]; 16.64 K,13.96 ± 0.37 J/K/mol
same,molar heat capacity at constant pressure,[2]; 20 K,20.52 ± 0.16 J/K/mol and 20.5 ± 0.15 J/K/mol
same,molar heat capacity at constant pressure,[2]; 22.84 K,26.59 ± 0.19 J/K/mol
same,molar heat capacity at constant pressure,[2]; 25 K,31.33 ± 0.21 J/K/mol
same,molar heat capacity at constant pressure,[2]; 25.85 K,33.31 ± 0.23 J/K/mol
same,molar heat capacity at constant pressure,[2]; 29.17 K,40.64 ± 0.27 J/K/mol
same,molar heat capacity at constant pressure,[2]; 30 K,42.65 ± 0.28 J/K/mol
same,molar heat capacity at constant pressure,[2]; 32.85 K,49.04 ± 0.31 J/K/mol
same,molar heat capacity at constant pressure,[2]; 35 K,53.76 ± 0.34 J/K/mol
same,molar heat capacity at constant pressure,[2]; 36.85 K,57.9 ± 0.37 J/K/mol
same,molar heat capacity at constant pressure,[2]; 40 K,64.51 ± 0.4 J/K/mol
same,molar heat capacity at constant pressure,[2]; 40.6 K,65.62 ± 0.41 J/K/mol
same,molar heat capacity at constant pressure,[2]; 44.11 K,72.98 ± 0.46 J/K/mol
same,molar heat capacity at constant pressure,[2]; 45 K,74.72 ± 0.46 J/K/mol
same,molar heat capacity at constant pressure,[2]; 48.18 K,80.84 ± 0.51 J/K/mol
same,molar heat capacity at constant pressure,[2]; 50 K,84.29 ± 0.52 J/K/mol
same,molar heat capacity at constant pressure,[2]; 52.32 K,88.52 ± 0.55 J/K/mol
same,molar heat capacity at constant pressure,[2]; 55 K,93.1 ± 0.58 J/K/mol
same,molar heat capacity at constant pressure,[2]; 56.3 K,95.12 ± 0.59 J/K/mol
same,molar heat capacity at constant pressure,[2]; 60 K,101 ± 0.6 J/K/mol
same,molar heat capacity at constant pressure,[2]; 60.23 K,101.6 ± 0.6 J/K/mol
same,molar heat capacity at constant pressure,[2]; 64.13 K,107 ± 0.7 J/K/mol
same,molar heat capacity at constant pressure,[2]; 65 K,108.3 ± 0.6 J/K/mol
same,molar heat capacity at constant pressure,[2]; 68.13 K,112.6 ± 0.7 J/K/mol
same,molar heat capacity at constant pressure,[2]; 70 K,115.1 ± 0.6 J/K/mol
same,molar heat capacity at constant pressure,[2]; 72.3 K,118.2 ± 0.7 J/K/mol
same,molar heat capacity at constant pressure,[2]; 76.49 K,123.2 ± 0.8 J/K/mol
same,molar heat capacity at constant pressure,[2]; 80 K,127.4 ± 0.6 J/K/mol
same,molar heat capacity at constant pressure,[2]; 80.07 K,127.4 ± 0.5 J/K/mol
same,molar heat capacity at constant pressure,[2]; 80.38 K,128 ± 0.5 J/K/mol
same,molar heat capacity at constant pressure,[2]; 85.04 K,132.9 ± 0.5 J/K/mol
same,molar heat capacity at constant pressure,[2]; 89.68 K,137.8 ± 0.5 J/K/mol
same,molar heat capacity at constant pressure,[2]; 90 K,138.1 ± 0.6 J/K/mol
same,molar heat capacity at constant pressure,[2]; 94.05 K,142.1 ± 0.5 J/K/mol
same,molar heat capacity at constant pressure,[2]; 98.21 K,146 ± 0.5 J/K/mol
same,molar heat capacity at constant pressure,[2]; 100 K,147.6 ± 0.7 J/K/mol
same,molar heat capacity at constant pressure,[2]; 102.43 K,149.8 ± 0.5 J/K/mol
same,molar heat capacity at constant pressure,[2]; 106.73 K,153.5 ± 0.6 J/K/mol
same,molar heat capacity at constant pressure,[2]; 110 K,156.4 ± 0.7 J/K/mol
same,molar heat capacity at constant pressure,[2]; 110.87 K,157.3 ± 0.6 J/K/mol
same,molar heat capacity at constant pressure,[2]; 115.52 K,160.9 ± 0.6 J/K/mol
same,molar heat capacity at constant pressure,[2]; 120 K,164.5 ± 0.7 J/K/mol
same,molar heat capacity at constant pressure,[2]; 120.66 K,165 ± 0.6 J/K/mol
same,molar heat capacity at constant pressure,[2]; 125.63 K,169 ± 0.6 J/K/mol
same,molar heat capacity at constant pressure,[2]; 130 K,172.1 ± 0.7 J/K/mol
same,molar heat capacity at constant pressure,[2]; 130.45 K,172.4 ± 0.6 J/K/mol
same,molar heat capacity at constant pressure,[2]; 135.15 K,176 ± 0.6 J/K/mol
same,molar heat capacity at constant pressure,[2]; 139.73 K,179.1 ± 0.6 J/K/mol
same,molar heat capacity at constant pressure,[2]; 140 K,179.4 ± 0.7 J/K/mol
same,molar heat capacity at constant pressure,[2]; 144.22 K,182.5 ± 0.6 J/K/mol
same,molar heat capacity at constant pressure,[2]; 148.61 K,185.6 ± 0.7 J/K/mol
same,molar heat capacity at constant pressure,[2]; 150 K,186.6 ± 0.7 J/K/mol
same,molar heat capacity at constant pressure,[2]; 152.93 K,188.8 ± 0.7 J/K/mol
same,molar heat capacity at constant pressure,[2]; 157.17 K,191.5 ± 0.7 J/K/mol
same,molar heat capacity at constant pressure,[2]; 160 K,193.5 ± 0.7 J/K/mol
same,molar heat capacity at constant pressure,[2]; 161.35 K,194.4 ± 0.7 J/K/mol
same,molar heat capacity at constant pressure,[2]; 165.97 K,197.3 ± 0.7 J/K/mol
same,molar heat capacity at constant pressure,[2]; 170 K,199.8 ± 0.7 J/K/mol
same,molar heat capacity at constant pressure,[2]; 171.03 K,200.5 ± 0.7 J/K/mol
same,molar heat capacity at constant pressure,[2]; 176 K,203.5 ± 0.7 J/K/mol
same,molar heat capacity at constant pressure,[2]; 180 K,206.2 ± 0.7 J/K/mol
same,molar heat capacity at constant pressure,[2]; 180.9 K,206.9 ± 0.7 J/K/mol
same,molar heat capacity at constant pressure,[2]; 185.74 K,210.1 ± 0.7 J/K/mol
same,molar heat capacity at constant pressure,[2]; 190 K,213 ± 0.7 J/K/mol
same,molar heat capacity at constant pressure,[2]; 190.5 K,213.3 ± 0.7 J/K/mol
same,molar heat capacity at constant pressure,[2]; 195.21 K,216.6 ± 0.8 J/K/mol
same,molar heat capacity at constant pressure,[2]; 199.87 K,219.6 ± 0.8 J/K/mol
same,molar heat capacity at constant pressure,[2]; 200 K,219.6 ± 0.9 J/K/mol
same,molar heat capacity at constant pressure,[2]; 204.46 K,222.6 ± 0.8 J/K/mol
same,molar heat capacity at constant pressure,[2]; 209.01 K,225.1 ± 0.8 J/K/mol
same,molar heat capacity at constant pressure,[2]; 210 K,225.9 ± 0.9 J/K/mol
same,molar heat capacity at constant pressure,[2]; 213.51 K,228.2 ± 0.8 J/K/mol
same,molar heat capacity at constant pressure,[2]; 217.97 K,231.3 ± 0.8 J/K/mol
same,molar heat capacity at constant pressure,[2]; 220 K,232.5 ± 0.9 J/K/mol
same,molar heat capacity at constant pressure,[2]; 222.38 K,234.3 ± 0.8 J/K/mol
same,molar heat capacity at constant pressure,[2]; 226.74 K,236.8 ± 0.8 J/K/mol
same,molar heat capacity at constant pressure,[2]; 230 K,238.9 ± 0.9 J/K/mol
same,molar heat capacity at constant pressure,[2]; 231.06 K,239.5 ± 0.8 J/K/mol
same,molar heat capacity at constant pressure,[2]; 235.35 K,242.2 ± 0.8 J/K/mol
same,molar heat capacity at constant pressure,[2]; 239.58 K,245.1 ± 0.8 J/K/mol
same,molar heat capacity at constant pressure,[2]; 240 K,245.4 ± 0.9 J/K/mol
same,molar heat capacity at constant pressure,[2]; 243.77 K,247.8 ± 0.9 J/K/mol
same,molar heat capacity at constant pressure,[2]; 248.11 K,250.8 ± 0.9 J/K/mol
same,molar heat capacity at constant pressure,[2]; 250 K,252 ± 0.9 J/K/mol
same,molar heat capacity at constant pressure,[2]; 252.68 K,253.8 ± 0.9 J/K/mol
same,molar heat capacity at constant pressure,[2]; 257.27 K,256.6 ± 0.9 J/K/mol
same,molar heat capacity at constant pressure,[2]; 260 K,258.5 ± 0.9 J/K/mol
same,molar heat capacity at constant pressure,[2]; 261.9 K,259.8 ± 0.9 J/K/mol
same,molar heat capacity at constant pressure,[2]; 266.49 K,262.7 ± 0.9 J/K/mol
same,molar heat capacity at constant pressure,[2]; 270 K,265.2 ± 0.9 J/K/mol
same,molar heat capacity at constant pressure,[2]; 271.04 K,266.1 ± 0.9 J/K/mol
same,molar heat capacity at constant pressure,[2]; 275.54 K,268.5 ± 0.9 J/K/mol
same,molar heat capacity at constant pressure,[2]; 280 K,271.7 ± 0.9 J/K/mol
same,molar heat capacity at constant pressure,[2]; 280.45 K,272.3 ± 0.9 J/K/mol
same,molar heat capacity at constant pressure,[2]; 285.75 K,275.1 ± 0.9 J/K/mol
same,molar heat capacity at constant pressure,[2]; 290 K,278.3 ± 0.9 J/K/mol
same,molar heat capacity at constant pressure,[2]; 291 K,279 ± 1 J/K/mol
same,molar heat capacity at constant pressure,[2]; 296.16 K,282.5 ± 1 J/K/mol
same,molar heat capacity at constant pressure,[2]; 298.15 K,283.9 ± 1.1 J/K/mol
same,molar heat capacity at constant pressure,[2]; 300 K,285.2 ± 1.1 J/K/mol
same,molar heat capacity at constant pressure,[2]; 300.51 K,285.7 ± 1 J/K/mol
same,molar heat capacity at constant pressure,[2]; 304.76 K,288.6 ± 1 J/K/mol
same,molar heat capacity at constant pressure,[2]; 308.97 K,291.5 ± 1 J/K/mol
same,molar heat capacity at constant pressure,[2]; 310 K,292.4 ± 1.1 J/K/mol
same,molar heat capacity at constant pressure,[2]; 313 K,294.5 ± 1.1 J/K/mol
same,molar heat capacity at constant pressure,[2]; 313.16 K,294.6 ± 1 J/K/mol
